From patent US20130217702A1 (Richter Gedeon Nyrt., priority 2010, published 2013) come the findings set out here.

Bounds are passed on as bounds.

For test [1], the target named is T1, recombinant human B1 receptors (Homo sapiens, UniProt P46663).
T1 construct: host or cells: CHO (CHO-B1)
T1 sequence (P46663 1-353): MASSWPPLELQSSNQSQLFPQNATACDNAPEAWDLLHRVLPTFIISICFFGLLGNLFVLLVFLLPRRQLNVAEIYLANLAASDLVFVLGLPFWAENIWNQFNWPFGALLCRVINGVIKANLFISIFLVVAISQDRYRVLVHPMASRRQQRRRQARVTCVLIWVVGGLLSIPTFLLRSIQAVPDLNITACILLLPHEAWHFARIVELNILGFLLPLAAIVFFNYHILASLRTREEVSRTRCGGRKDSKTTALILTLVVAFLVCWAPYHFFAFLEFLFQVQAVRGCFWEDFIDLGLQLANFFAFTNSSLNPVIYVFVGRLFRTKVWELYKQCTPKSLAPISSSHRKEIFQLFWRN
As to the kind of experiment: Functional assay: antagonist potency by cytosolic calcium measurement (plate reader fluorimeter) in CHO-B1 cells, agonist LysDABK. The settings on record: CHO-B1 cells, inhibition of LysDABK (EC80)-evoked [Ca2+]i elevation; read-out: B1 func. The format is cell-based. The method in brief: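 IC50 is the concentration giving half-maximal inhibition of the LysDABK (EC80) calcium response, fitted from at least three experiments. CHO cells stably expressing human B1 were dye-loaded, exposed to compound for 20-25 min, then read by fluo-4 fluorescence (ΔF/F) at 37 °C.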

In test [2] the target is T2, human recombinant bradykinin B1 receptor (Homo sapiens, UniProt P46663).
T2 construct: host or cells: CHO cells, clone hB1-A5
T2 sequence (P46663 1-353): T1 sequence (P46663 1-353)
As to the kind of experiment: Human recombinant bradykinin B1 receptor competitive radioligand binding. The settings on record: hB1 expressed in CHO cells, [3H]-[Des-Arg10] Kallidin radioligand; read-out: B1 binding. In short, it runs like this: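 Membranes from CHO cells expressing hB1 (20 μg protein/tube) incubated 15 min at 25° C. with [3,4-prolyl-3,4-^3H(N)]-[Des-Arg^10] Kallidin; nonspecific binding defined with 10 μM Lys-des-Arg^9-Bradykinin. Bound label collected by filtration and counted. IC50 from ≥7-point curves in triplicate; Ki by Cheng-Prusoff.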

With `Cc1nc(-c2c(Cl)c3ccccc3n2-c2ccc(CNC(=O)C3(NC(=O)c4cc(C(F)(F)F)ccc4F)CC3)cc2)no1` [Example 96, N-(1-{4-[3-Chloro-2-(5-methyl-[1,2,4]oxadiazol-3-yl)-indol-1-yl]-benzylcarbamoyl}-cyclopropyl)-2-fluoro-5-trifluoromethyl-benzamide], the IC50 in test [1] was below 20 nM. Besides, the Ki in test [2] was below 20 nM.
